Values quoted from earlier work in PubChem BioAssay AID1259409 (Chemical Carcinogenesis Research Information System (CCRIS), 2018).

System: rodent chemically induced tumor inhibition, incidence and multiplicity
Assay: CCRIS tumor inhibitor studies
Settings: Carcinogen: 2,2'-DIHYDROXY-DI-N-PROPYLNITROSAMINE, 13147-25-6, Carcinogen: 2,2'-DIHYDROXY-DI-N-PROPYLNITROSAMINE, 13147-25-6, Dose [Inhibitor]: 0, Route [Inhibitor]: ORAL, Species: RAT, Strain/Sex: F344/MALE, Promoter: NONE USED

In the case of CCCCCCCCCCCCCCCC(=O)CC(=O)CCCCCCCCCCCCCCC, the “tumour outcome (control, treated, inhibition, significance)” value (36909-64-6, N-ETHYL-N-HYDROXYETHYL- NITROSAMINE, 3,2'DIMETHYL-4-A, 36909-64-6, N-ETHYL-N-HYDROXYETHYL- NITROSAMINE, 3,2'DIMETHYL-4-A, 0.2% IN DIET BEGINNING 1 WK POST LAST CARCINOGEN DOSE AND CONTINUING FOR 32 WK (STUDY DURATION: 36 WK), Target Tissue: Type of Lesion: URINARY BLADDER: CARCINOMA, Dose [Carcinogen]: 1000 MG/KG IP DHPN 2X, 1500 MG/KG GAV EHEN 2X AND 75 MG/KG SC DMAB 3X GIVEN OVER THE INITIAL 3 WK AT 3-4 D INTERVALS) is listed as 1/14 (7%), 1/15 (7%), 0%, not significant, the “tumour outcome (control, treated, inhibition, significance)” value (53609-64-6, N-ETHYL-N-HYDROXYETHYL- NITROSAMINE, 3,2'-DIMETHYL-4-, 53609-64-6, N-ETHYL-N-HYDROXYETHYL- NITROSAMINE, 3,2'-DIMETHYL-4-, 0.2% IN DIET BEGINNING 1 WK POST LAST CARCINOGEN DOSE AND CONTINUING FOR 32 WK (STUDY DURATION: 36 WK), Target Tissue: Type of Lesion: LARGE INTESTINE: ADENOMA, Dose [Carcinogen]: 1000 MG/KG IP DHPN 2X, 1500 MG/KG GAV EHEN 2X AND 75 MG/KG SC DMAB 3X GIVEN OVER THE INITIAL 3 WK PERIOD AT 3-4 D INTERV) is listed as 7/14 (50%), 7,15 (47%), 6%, not calculated and the outcome (53609-64-6, N-ETHYL-N-HYDROXYETHYL- NITROSAMINE, 3,2'-DIMETHYL-4-, 53609-64-6, N-ETHYL-N-HYDROXYETHYL- NITROSAMINE, 3,2'-DIMETHYL-4-, 0.2% IN DIET BEGINNING 1 WK POST LAST CARCINOGEN DOSE AND CONTINUING FOR 32 WK (STUDY DURATION: 36 WK), Target Tissue: Type of Lesion: URINARY BLADDER: PAPILLOMA, Dose [Carcinogen]: 1000 MG/KG IP DHPN 2X, 1500 MG/KG GAV EHEN 2X AND 75 MG/KG SC DMAB 3X GIVEN OVER THE INITIAL 3 WK PERIOD AT 3-4 D INTERV) is listed as 0/14 (0%), 3/15 (20%), -100%, not calculated. For the same molecule, the “tumour outcome (control, treated, inhibition, significance)” value (53609-64-6, N-ETHYL-N-HYDROXYETHYL- NITROSAMINE, 3,2'-DIMETHYL-4-, 53609-64-6, N-ETHYL-N-HYDROXYETHYL- NITROSAMINE, 3,2'-DIMETHYL-4-, 02% IN DIET BEGINNING 1 WK POST LAST CARCINOGEN DOSE AND CONTINUING FOR 32 WK (STUDY DURATION: 36 WK), Target Tissue: Type of Lesion: LUNG: CARCINOMA, Dose [Carcinogen]: 1000 MG/KG IP DHPN 2X , 1500 MG/KG GAV EHEN 2X AND 75 MG/KG SC DMAB 3X GIVEN OVER THE INITIAL 3 WK PERIOD AT 3-4 D INTER) was 1/14 (7%), 3/15 (20%), -186%, not calculated, the “tumour outcome (control, treated, inhibition, significance)” value (53609-64-6, N-ETHYL-N-HYDROXYETHYL- NITROSAMINE, 3,2'DIMETHYL-4-A, 53609-64-6, N-ETHYL-N-HYDROXYETHYL- NITROSAMINE, 3,2'DIMETHYL-4-A, 0.2% IN DIET BEGINNING 1 WK POST LAST CARCINOGEN DOSE AND CONTINUING FOR 32 WK (STUDY DURATION: 36 WK), Target Tissue: Type of Lesion: LIVER: HEPATOCELLULAR CARCINOMA, Dose [Carcinogen]: 1000 MG/KG IP DHPN 2X, 1500 MG/KG GAV EHEN 2X AND 75 MG/KG SC DMAB 3X GIVEN OVER THE INITIAL 3 WK AT 3-4 D INTERVALS) was 6/14 (43%), 1/15 (7%), 84%, p<0.05 and the “tumour outcome (control, treated, inhibition, significance)” value (53609-64-6, N-ETHYL-N-HYDROXYETHYLNITROSAMINE, 3,2'-DIMETHYL-1,4-, 53609-64-6, N-ETHYL-N-HYDROXYETHYLNITROSAMINE, 3,2'-DIMETHYL-1,4-, 0.2% IN DIET FOR 4 WK BEGINNING 1 D PRIOR TO FIRST CARCINOGEN DOSE (STUDY DURATION: 36 WK), Target Tissue: Type of Lesion: KIDNEY: ADENOMA, Dose [Carcinogen]: 1000 MG/KG BW DHPN TWICE, 1500 MG/KG EHEN TWICE, 75 MG/KG BW DMAB 3 TIMES, SEQUENTIALLY OVER 3 WK) was 6/10 (60%), 7/13 (54%), 10%, not significant. The “tumour outcome (control, treated, inhibition, significance)” value (53609-64-6, N-ETHYL-N-HYDROXYETHYLNITROSAMINE, 3,2'-DIMETHYL-1,4-, 53609-64-6, N-ETHYL-N-HYDROXYETHYLNITROSAMINE, 3,2'-DIMETHYL-1,4-, 0.2% IN DIET FOR 4 WK BEGINNING 1 D PRIOR TO FIRST CARCINOGEN DOSE (STUDY DURATION: 36 WK), Target Tissue: Type of Lesion: LUNG: ADENOMA, Dose [Carcinogen]: 1000 MG/KG BW DHPN TWICE, 1500 MG/KG EHEN TWICE, 75 MG/KG BW DMAB 3 TIMES, SEQUENTIALLY OVER 3 WK) was 5/10 (50%), 6/13 (46%), 8%, not significant, the “tumour outcome (control, treated, inhibition, significance)” value (53609-64-6, N-ETHYL-N-HYDROXYETHYLNITROSAMINE, 3,2'-DIMETHYL-4-AMINO-, 53609-64-6, N-ETHYL-N-HYDROXYETHYLNITROSAMINE, 3,2'-DIMETHYL-4-AMINO-, 0.2% IN DIET FOR 32 WK BEGINNING 1 WK POST CARCINOGEN TREATMENT (STUDY DURATION: 36 WK), Target Tissue: Type of Lesion: KIDNEY: ADENOMA, Dose [Carcinogen]: 1000 MG/KG BW DHPN TWICE, 1500 MG/KG BW EHEN TWICE, 75 MG/KG BW 3 TIMES ADMINISTERED OVER FIRST 3 WK) was 6/14 (43%), 5/15 (33%), 23% , not significant and the “tumour outcome (control, treated, inhibition, significance)” value (53609-64-6, N-ETHYL-N-HYDROXYETHYLNITROSAMINE, 3,2'-DIMETHYL-4-AMINO-, 53609-64-6, N-ETHYL-N-HYDROXYETHYLNITROSAMINE, 3,2'-DIMETHYL-4-AMINO-, 0.2% IN DIET FOR 32 WK BEGINNING 1 WK POST CARCINOGEN TREATMENT (STUDY DURATION: 36 WK), Target Tissue: Type of Lesion: KIDNEY: NEPHROBLASTOMA, Dose [Carcinogen]: 1000 MG/KG BW DHPN TWICE, 1500 MG/KG BW EHEN TWICE, 75 MG/KG BW 3 TIMES ADMINISTERED OVER FIRST 3 WK) was 2/14 (14%), 2/15 (13%), 7%, not significant. The “tumour outcome (control, treated, inhibition, significance)” value (53609-64-6, N-ETHYL-N-HYDROXYETHYLNITROSAMINE, 3,2'-DIMETHYL-4-AMINO-, 53609-64-6, N-ETHYL-N-HYDROXYETHYLNITROSAMINE, 3,2'-DIMETHYL-4-AMINO-, 0.2% IN DIET FOR 32 WK BEGINNING 1 WK POST CARCINOGEN TREATMENT (STUDY DURATION: 36 WK), Target Tissue: Type of Lesion: KIDNEY: TRANSITIONAL CELL CARCINOMA, Dose [Carcinogen]: 1000 MG/KG BW DHPN TWICE, 1500 MG/KG BW EHEN TWICE, 75 MG/KG BW 3 TIMES ADMINISTERED OVER FIRST 3 WK) was 1/14 (7%), 1/15 (7%), 0%, not significant.
